Experimental data reported in patent US20220378706A1, “PHARMACEUTICAL COMPOSITION COMPRISING PDE9 INHIBITOR” (Eisai R&D Management Co., Ltd., priority 2017, published 2022).
Like-named read-outs stand apart in the source and are kept apart here.

Experiment: Single dose clinical study: plasma Compound A pharmacokinetics
Assay type: in vivo, human
Conditions: human, plasma
Procedure: This was a single center, single dose, randomized, double blind, placebo controlled study in healthy subjects. It consisted of 4 parts: Parts A, B, C, and D. Each of the four study parts had 2 phases: Prerandomization Phase and Randomization Phase. The Prerandomization Phase lasted up to 30 days and consisted of a Screening Period and a Baseline Period, during which each subject's study eligibility was determined and baseline assessments were performed.
In Part A, there were 8 sequential cohorts of healthy adult subjects (18-50 years of age). Subjects were randomly assigned to Compound A or placebo in a ratio of 6:2, respectively. Subjects in the Compound A cohorts were treated with single ascending doses of 10, 25, 50, 100, 200, 400, 800, or 1200 mg.
In Part B, there were 4 cohorts of healthy adult subjects (18-50 years of age). There were 8 subjects in Cohort 1, with 6 subjects randomly assigned to receive single doses of Compound A (400 mg) and 2 subjects randomly assigned to receive placebo. There were 7 subjects in Cohort 2 and Cohort 3, each with 6 subjects randomly assigned to receive single doses of Compound A (100 and 200 mg, respectively) and 1 subject randomly assigned to receive placebo. The dose of 100 mg selected in Cohort 2 was based on preliminary analysis of Cohort 1 data; this dose was predicted from PK/PD modeling to achieve a sustained CSF cGMP increase from baseline of approximately 200% when administered to steady state, and thereby provided a potentially therapeutic dose for further evaluation in future studies. There were 7 subjects in Cohort 4, with 6 subjects randomly assigned to receive a single dose of Compound A (50 mg [n=3] or 75 mg [n=3]) and 1 subject randomly assigned to receive placebo. The doses for Cohorts 3 and 4 were selected based on PK/PD modeling of the data in Cohorts 1 and 2.
Subjects in Cohort 2 who had received Compound A 100 mg or placebo under fasted conditions (1st Treatment Period) also participated in an evaluation of food effect on the PK of Compound A (2nd Treatment Period). After a washout period of at least 13 days (or 5 half-lives of Compound A, whichever was longer), subjects were admitted to the clinic for baseline assessments (2nd Baseline Period) and then received a single dose of the same treatment (Compound A 100 mg or placebo) after consuming a high fat and high calorie meal over 30 minutes. Blood PK samples were collected at prespecified time points. Safety evaluations were also assessed. CSF was not collected for PD evaluation during the 2nd Treatment Period. A Follow Up Visit occurred on Day 10 of Treatment Period 2.
In Part C, there was 1 cohort of 8 healthy elderly subjects (65 to 85 years of age) randomly assigned to receive a single dose of Compound A 100 mg or placebo in a ratio of 6:2, respectively.
In Part D, 3 cohorts of healthy adult Japanese subjects were randomized in parallel. There were 7 subjects in each cohort and subjects were randomly assigned to receive single doses of Compound A (25, 100, or 400 mg) or placebo in a ratio of 6:1, respectively.
Blood samples for determination of plasma Compound A concentrations were collected from predose to 216 hours postdose. On Day 1, blood PK samples were collected at predose and postdose 0.5 (30 minutes), 1, 1.5, 2, 3, 4, 5, 6, 8, 12, and 18 hours. Thereafter, samples were collected on Day 2 (24 and 36 hours postdose), Day 3 (48 hours postdose), Day 4 (72 hours postdose), Day 5 (96 hours postdose), Day 6 (120 hours postdose), Day 7 (144 hours postdose), and Day 10 (216 hours postdose).
Blood samples for determination of plasma Compound A concentrations were collected from predose to 216 hours postdose. For all cohorts, blood PK samples were collected on Day 1 at predose and postdose at 0.5 (30 minutes), 1, 1.5, 2, 3, 4, 5, 6, 8, 10, 12, and 18 hours. […]

COc1ncc(C)c(-c2ccc3c(c2)[nH]c(=O)c2cnn([C@H]4CCOC4)c23)c1C [Compound A, (S)-7-(2-methoxy-3,5-dimethylpyridin-4-yl)-1-(tetrahydrofuran-3-yl)-1H-pyrazolo[4,3-c]quin olin-4(5H)-one]
Cmax (oral, 400 mg, non-Japanese, 400 mg, with weight as covariate, read-out: Cmax Geometric LS Means Reference): 833 ng/mL
AUC (oral, 400 mg, non-Japanese, 400 mg, without weight as covariate, read-out: AUC(O-inf) Geometric LS Means Reference): 35800 ng·h/mL
Cmax (oral, 400 mg, non-Japanese, 400 mg, without weight as covariate, read-out: Cmax Geometric LS Means Reference): 827 ng/mL
half-life (oral, single doses of 10 to 1200 mg, read-out: Mean t1/2 across all doses): 26.8 to 33.6 h
Tmax (oral, single doses of 10 to 1200 mg, read-out: median plasma tmax across all doses): 2 to 4 h
AUC(0-t) (po, 10 mg, healthy adults (Parts A,B), single oral 10 mg, fasted, read-out: AUC(0-24 h) GM): 719 ng·h/mL
AUC(0-t) (po, 10 mg, healthy adults (Parts A,B), single oral 10 mg, fasted, read-out: AUC(0-30 h) GM): 863 ng·h/mL
AUC(0-t) (po, 10 mg, healthy adults (Parts A,B), single oral 10 mg, fasted, read-out: AUC(0-72 h) GM): 1430 ng·h/mL
AUC(0-inf) (po, 10 mg, healthy adults (Parts A,B), single oral 10 mg, fasted, read-out: AUC(0-inf) GM): 1840 ng·h/mL
AUC(0-t) (po, 10 mg, healthy adults (Parts A,B), single oral 10 mg, fasted, read-out: AUC(0-t) GM): 1700 ng·h/mL
Cmax (po, 10 mg, healthy adults (Parts A,B), single oral 10 mg, fasted, read-out: Cmax GM): 60.2 ng/mL
Vd/F (po, 10 mg, healthy adults (Parts A,B), single oral 10 mg, fasted, read-out: Vz/F GM): 255 L
half-life (po, 10 mg, healthy adults (Parts A,B), single oral 10 mg, fasted, read-out: t1/2 Mean (converted)): 33.6 h
Tmax (po, 10 mg, healthy adults (Parts A,B), single oral 10 mg, fasted, read-out: tmax Median): 2.27 h
AUC(0-inf) (po, 25 mg, Japanese Subjects (Part D), single oral 25 mg, read-out: AUC(0-inf) GM): 4580 ng·h/mL
Cmax (po, 25 mg, Japanese Subjects (Part D), single oral 25 mg, read-out: Cmax GM (% CV)): 212 ng/mL
Vd/F (po, 25 mg, Japanese Subjects (Part D), single oral 25 mg, read-out: Vz/F GM (% CV)): 165 L
half-life (po, 25 mg, Japanese Subjects (Part D), single oral 25 mg, read-out: t1/2 Mean (SD) (converted)): 21.5 h
Tmax (po, 25 mg, Japanese Subjects (Part D), single oral 25 mg, read-out: tmax Median): 2.08 h
AUC(0-inf) (po, 25 mg, Non-Japanese Subjects (Parts A,B), single oral 25 mg, read-out: AUC(0-inf) GM): 4340 ng·h/mL
Cmax (po, 25 mg, Non-Japanese Subjects (Parts A,B), single oral 25 mg, read-out: Cmax GM (% CV)): 152 ng/mL
Vd/F (po, 25 mg, Non-Japanese Subjects (Parts A,B), single oral 25 mg, read-out: Vz/F GM (% CV)): 216 L
half-life (po, 25 mg, Non-Japanese Subjects (Parts A,B), single oral 25 mg, read-out: t1/2 Mean (SD) (converted)): 26.8 h
Tmax (po, 25 mg, Non-Japanese Subjects (Parts A,B), single oral 25 mg, read-out: tmax Median): 2.65 h
AUC(0-t) (po, 25 mg, healthy adults (Parts A,B), single oral 25 mg, fasted, read-out: AUC(0-24 h) GM): 1850 ng·h/mL
AUC(0-t) (po, 25 mg, healthy adults (Parts A,B), single oral 25 mg, fasted, read-out: AUC(0-30 h) GM): 2200 ng·h/mL
AUC(0-t) (po, 25 mg, healthy adults (Parts A,B), single oral 25 mg, fasted, read-out: AUC(0-72 h) GM): 3570 ng·h/mL
AUC(0-inf) (po, 25 mg, healthy adults (Parts A,B), single oral 25 mg, fasted, read-out: AUC(0-inf) GM): 4340 ng·h/mL
AUC(0-t) (po, 25 mg, healthy adults (Parts A,B), single oral 25 mg, fasted, read-out: AUC(0-t) GM): 4200 ng·h/mL
Cmax (po, 25 mg, healthy adults (Parts A,B), single oral 25 mg, fasted, read-out: Cmax GM): 152 ng/mL
Vd/F (po, 25 mg, healthy adults (Parts A,B), single oral 25 mg, fasted, read-out: Vz/F GM): 216 L
half-life (po, 25 mg, healthy adults (Parts A,B), single oral 25 mg, fasted, read-out: t1/2 Mean (converted)): 26.8 h
Tmax (po, 25 mg, healthy adults (Parts A,B), single oral 25 mg, fasted, read-out: tmax Median): 2.65 h
AUC(0-t) (po, 50 mg, healthy adults (Parts A,B), single oral 50 mg, fasted, read-out: AUC(0-24 h) GM): 3370 ng·h/mL
AUC(0-t) (po, 50 mg, healthy adults (Parts A,B), single oral 50 mg, fasted, read-out: AUC(0-30 h) GM): 4010 ng·h/mL
AUC(0-t) (po, 50 mg, healthy adults (Parts A,B), single oral 50 mg, fasted, read-out: AUC(0-72 h) GM): 6490 ng·h/mL
AUC(0-inf) (po, 50 mg, healthy adults (Parts A,B), single oral 50 mg, fasted, read-out: AUC(0-inf) GM): 7900 ng·h/mL
AUC(0-t) (po, 50 mg, healthy adults (Parts A,B), single oral 50 mg, fasted, read-out: AUC(0-t) GM): 7720 ng·h/mL
Cmax (po, 50 mg, healthy adults (Parts A,B), single oral 50 mg, fasted, read-out: Cmax GM): 225 ng/mL
Vd/F (po, 50 mg, healthy adults (Parts A,B), single oral 50 mg, fasted, read-out: Vz/F GM): 233 L
half-life (po, 50 mg, healthy adults (Parts A,B), single oral 50 mg, fasted, read-out: t1/2 Mean (converted)): 26.9 h
Tmax (po, 50 mg, healthy adults (Parts A,B), single oral 50 mg, fasted, read-out: tmax Median): 4 h
AUC(0-t) (po, 75 mg, healthy adults (Parts A,B), single oral 75 mg, fasted, read-out: AUC(0-24 h) GM): 3650 ng·h/mL
AUC(0-t) (po, 75 mg, healthy adults (Parts A,B), single oral 75 mg, fasted, read-out: AUC(0-30 h) GM): 4460 ng·h/mL
AUC(0-t) (po, 75 mg, healthy adults (Parts A,B), single oral 75 mg, fasted, read-out: AUC(0-72 h) GM): 7880 ng·h/mL
AUC(0-inf) (po, 75 mg, healthy adults (Parts A,B), single oral 75 mg, fasted, read-out: AUC(0-inf) GM): 9880 ng·h/mL
AUC(0-t) (po, 75 mg, healthy adults (Parts A,B), single oral 75 mg, fasted, read-out: AUC(0-t) GM): 9520 ng·h/mL
Cmax (po, 75 mg, healthy adults (Parts A,B), single oral 75 mg, fasted, read-out: Cmax GM): 222 ng/mL
Vd/F (po, 75 mg, healthy adults (Parts A,B), single oral 75 mg, fasted, read-out: Vz/F GM): 308 L
half-life (po, 75 mg, healthy adults (Parts A,B), single oral 75 mg, fasted, read-out: t1/2 Mean (converted)): 28.9 h
Tmax (po, 75 mg, healthy adults (Parts A,B), single oral 75 mg, fasted, read-out: tmax Median): 3 h
AUC(0-inf) (po, 100 mg, Elderly, single oral 100 mg, read-out: AUC(0-inf) Geometric LS Means Test): 21300 ng·h/mL
Cmax (po, 100 mg, Elderly, single oral 100 mg, read-out: Cmax Geometric LS Means Test): 543 ng/mL
AUC(0-inf) (po, 100 mg, Younger Adults (Parts A,B), single oral 100 mg, read-out: AUC(0-inf) Geometric LS Means Reference): 15000 ng·h/mL
Cmax (po, 100 mg, Younger Adults (Parts A,B), single oral 100 mg, read-out: Cmax Geometric LS Means Reference): 373 ng/mL
AUC(0-inf) (po, 100 mg, Japanese Subjects (Part D), single oral 100 mg, read-out: AUC(0-inf) GM): 14200 ng·h/mL
